# Assays:
# LNCaP cells = test: LNCaP cell proliferation in phenol red-free and steroid-free medium; type: cell-based, human; settings: ANG 0.1 μg/ml, DHT 10 nM
# Procedure: (§1) (a) ANG stimulates LNCaP cell proliferation in the absence of androgens. Cells were culture in phenol red-free and charcoal/dextran-stripped (steroid-free) FBS for 2 day and stimulated with DHT (10 nM), ANG (0.1 μg/ml), or a mixture of the two for the time indicated. (b) Dose dependence. ANG was added to the cells and cultured for 4 days. (c) Anti-ANG mAb 26-2F inhibits DHT-induced cell proliferation. LNCaP cells were stimulated with 10 nM DHT in the presence of 26-2F or a control non-immune IgG for 3 days. (d) ANG over-expression promotes LNCaP proliferation in vitro. The vector control (pCI-Neo) and ANG transfectants (pCI-ANG) were cultured in phenol red-free and steroid-free medium for the time indicated. (e) Xenograft growth in castrated SCID mice. A mixture of 70 μl cell suspension (1×10^6 cells) and 30 μl Matrigel was injected s.c. per mouse (8 per group). The mice were castrated or sham-operated at the same time. Tumors were inspected and measured twice a week and the animals were sacrificed after 8 weeks of observation. (f) Endogenous ANG of LNCaP cells is essential for androgen-induced rRNA transcription. LNCaP cells were cultured in phenol red-free and steroid-free medium and incubated with DHT (10 nM), ANG (0.1 μg/ml), anti-ANG mAb 26-2F (60 μg/ml) or a mixture of DHT and 26-2F for 2 h. […]
# 47S rRNA = test: rRNA transcription in LNCaP cells by Northern blotting; type: cell-based, human; settings: ANG 0.1 μg/ml, 26-2F 60 μg/ml, 2 h
# Procedure: as §1
# AR = molecular target: T1, AR (Homo sapiens, UniProt P10275, T878A); test: Nuclear translocation of AR in LNCaP cells by immunofluorescence; type: cell-based; settings: ANG 0.1 μg/ml, 2 h
# T1 construct: in untreated LNCaP cells, AR was diffusely distributed throughout the cytoplasm; endogenous in cells; host or cells: LNCaP
# T1 sequence (P10275 1-920 T878A): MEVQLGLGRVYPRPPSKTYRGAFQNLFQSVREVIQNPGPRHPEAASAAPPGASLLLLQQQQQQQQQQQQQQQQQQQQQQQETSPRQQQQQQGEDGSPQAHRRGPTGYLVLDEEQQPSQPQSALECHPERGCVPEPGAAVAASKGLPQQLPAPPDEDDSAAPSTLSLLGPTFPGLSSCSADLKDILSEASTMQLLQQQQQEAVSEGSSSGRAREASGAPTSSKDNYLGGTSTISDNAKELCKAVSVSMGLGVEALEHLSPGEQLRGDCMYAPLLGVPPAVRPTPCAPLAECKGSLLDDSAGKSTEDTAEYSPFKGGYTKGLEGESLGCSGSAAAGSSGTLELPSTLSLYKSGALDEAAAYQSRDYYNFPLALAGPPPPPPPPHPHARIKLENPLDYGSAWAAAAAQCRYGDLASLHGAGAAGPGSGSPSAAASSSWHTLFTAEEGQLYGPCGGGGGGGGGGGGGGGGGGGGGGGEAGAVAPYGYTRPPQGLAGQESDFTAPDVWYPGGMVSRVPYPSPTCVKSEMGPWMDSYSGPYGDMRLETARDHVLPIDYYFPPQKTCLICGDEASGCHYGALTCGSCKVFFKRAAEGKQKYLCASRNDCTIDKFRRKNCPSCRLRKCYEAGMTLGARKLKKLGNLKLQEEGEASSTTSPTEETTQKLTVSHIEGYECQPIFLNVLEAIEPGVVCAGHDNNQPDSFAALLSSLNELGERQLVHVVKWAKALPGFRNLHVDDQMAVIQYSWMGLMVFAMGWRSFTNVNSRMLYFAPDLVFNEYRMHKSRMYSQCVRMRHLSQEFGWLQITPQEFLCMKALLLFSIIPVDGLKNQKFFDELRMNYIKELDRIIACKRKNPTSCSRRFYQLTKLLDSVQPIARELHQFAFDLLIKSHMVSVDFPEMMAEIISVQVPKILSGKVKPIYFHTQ
# Procedure: FIG. 19 is a four panel figure that depicts a series of photographs showing immunofluorescently labeled LNCaP cells, showing the effect of ANG on nuclear translocation of AR (panels a-d). LNCaP cells were cultured in charcoal/dextran-stripped FBS and phenol red-free medium for 2 days, and incubated with ANG (0.1 μg/ml), DHT (10 nM) or DHT (10 nM)+anti-ANG mAb 26-2F (30 μg/ml) for 2 h. The cells were fixed and stained for AR by immunofluorescence.
# [1] = tested on: PC-3, PC-3M, and DU-145 cells; test: Proliferation of androgen-independent prostate cancer cells; type: cell-based, human
# PIN = test: Injection of human ANG protein into the ventral prostate of MPAKT mice (cancer invasion); type: in vivo; settings: 50 μg per mouse, 9 weeks-old MPAKT mice, sacrificed 2 weeks later
# Procedure: Human ANG protein, 50 μg per mouse, was injected into the surgically exposed ventral prostate of 9 weeks-old MPAKT mice. The mice were sacrificed 2 weeks later and the prostates were processed for H&E staining. Cells invading outside of the basement membrane are indicated by arrows.
# established PIN = test: Reversal of established PIN in 12-week-old MPAKT mice; type: in vivo
# [2] = tested on: PC-3 human prostate cancer cells; settings: nude mice, literature; cited from earlier work
# ANG = ANG (Homo sapiens, UniProt P03950); settings: screen of 18,310 compounds; cited from earlier work
# ANG, sequence (P03950 25-147): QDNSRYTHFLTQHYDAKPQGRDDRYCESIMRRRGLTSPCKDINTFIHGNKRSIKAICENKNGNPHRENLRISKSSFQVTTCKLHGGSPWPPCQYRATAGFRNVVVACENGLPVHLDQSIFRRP
# AKT-induced PIN = test: Prevention of AKT-induced PIN in 4-week-old MPAKT mice by small-molecule ANG inhibitors; settings: daily i.p. 4 weeks from week 4
# [3] = daily i.p. 4 weeks from week 12
Molecule,LNCaP cell proliferation in the absence of androgens (LNCaP cells),rRNA transcription in LNCaP cells (47S rRNA),nuclear translocation of AR in the absence of androgen (AR),effect of exogenously added ANG on cell proliferation [1],animals with micro invasions (PIN),AKT expression and phosphorylation (IHC) (established PIN; [3]),established PIN phenotype (H&E) (established PIN; [3]),rRNA transcription / 47S rRNA level (ISH) (established PIN; [3]),"apoptotic index (established PIN; neomycin 10 mg/kg, N65828 4 mg/kg daily i.p. 4 weeks from week 12, control 0.95±0.11)",xenograft growth of PC-3 cells [2],"selectivity of enzymatic inhibition, ANG vs RNase A (ANG)",47S rRNA level / transcription (ISH) (AKT-induced PIN),AKT phosphorylation (IHC) (AKT-induced PIN),localization of ANG in prostate epithelial cells (IHC) (AKT-induced PIN),"PIN formation (H&E) (AKT-induced PIN; neamine, neomycin 10 mg/kg, N65828 4 mg/kg)"
"ANG: angiogenin, a 14 kDa angiogenic ribonuclease",stimulates,stimulated,stimulated,no effect,2 of the 4,,,,,,,,,,
"Nc1ccc(N=Nc2ccc(-c3ccc(O)cc3)cc2)c2ccc(S(=O)(=O)O)cc12 [N65828, 8-amino-5-(4′-hydroxybiphenyl-4-ylazo)naphthalene-2-sulfonate]",,,,,,not different from that of the control group,reversed,dramatically decreased,2.02±0.21 caspase 3 positive cells per duct,inhibit,preferentially inhibited,inhibited,not altered,remained strongly in the nucleus,prevented PIN formation

# Source: patent US20210223230A1, “Neamine Compositions and Methods of Use Thereof” (President and Fellows of Harvard College, priority 2008, published 2021)
